# US20040116535A1, “Use” (priority 2001, published 2004)
# Entries after “also recorded” stand apart in the source; their conditions may differ. Like-named read-outs stand apart in the source and are kept apart here.
# Key:
# tinnitus [1] = conditions: no statistically significant difference to placebo (35%); cited from earlier work
# tinnitus [2] = conditions: tocainide infusion; placebo infusion 5%; cited from earlier work
# GABA = conditions: cited from earlier work
# tinnitus [3] = system: tinnitus
# inferior colliculus = conditions: activity believed to be representative of tinnitus; cited from earlier work
# [4] = system: allodynia from rat nerve root ligation; conditions: cited from earlier work
# tinnitus [5] = conditions: difference to placebo (30%) not significant; cited from earlier work
# tinnitus [6] = conditions: 32 patients; 200 mg 3 times daily for 30 days; cited from earlier work
# tinnitus [7] = conditions: 300 mg mex per day orally for one or two weeks; cited from earlier work
# [8] = cited from earlier work
# allodynia = assay: Different allodynia model, i.v. injected mex enantiomers (Nordmark and Schött, unpublished observations); format: in vivo; conditions: 25 mg/kg i.v.
molecule,measurement,setting,value
NC(=O)N1c2ccccc2C=Cc2ccccc21 [carbamazepine],positive results for the drug,tinnitus [1],45%
Cc1cccc(C)c1NC(=O)C(C)N (stereo not drawn) [tocainide],reduction in tinnitus intensity,tinnitus [2],50%
same,effect on GABA,GABA,stimulating effect
CCN(CC)CC(=O)Nc1c(C)cccc1C [lidocaine],side effects,"tinnitus [3]; Case 1, 100 mg lidocaine i.v.",no side effects
same,tinnitus intensity reduction (VAS),"tinnitus [3]; Case 1, 100 mg lidocaine i.v. over 5 min, 70 min after the start",96%
same,time after which tinnitus returned to the initial level,"tinnitus [3]; Case 2, lidocaine i.v.",about 2 min
same,tinnitus (VAS),"tinnitus [3]; Case 2, lidocaine i.v., 30 s after injection",no tinnitus
same,tinnitus increase above the base level,"tinnitus [3]; Case 2, lidocaine i.v., at 30 min",46%
same,tinnitus (VAS),"tinnitus [3]; Case 2, lidocaine i.v., less than one min after the start of the injection",vanished completely
same,reduction in tinnitus intensity,"tinnitus [3]; Case 3, lidocaine",small reductions; also recorded: moderate
same,side effects,"tinnitus [3]; Case 3, lidocaine",no side effects
same,increased spontaneous activity in the inferior colliculus,inferior colliculus,abolished
same,effect on GABA,GABA,stimulating effect
Cc1cccc(C)c1OC[C@@H](C)N [(R−)-mex],pain relief (allodynia) compared between the mex enantiomers,[4],considerably greater
CNCCC=C1c2ccccc2CCc2ccccc21 [nortriptyline],reduction of tinnitus sensation,tinnitus [5],43%
"1-(2,6-dimethylphenoxy)-propanamine [mexiletine]",tinnitus intensity reduction (VAS),"tinnitus [3]; Case 1, 500 mg mexiletine infused over 120 min, after 118 min",95%
same,time after which tinnitus returned to normal,"tinnitus [3]; Case 2, 500 mg mexiletine",1 h
same,level to which tinnitus was reduced,"tinnitus [3]; Case 2, 500 mg mexiletine, shortly before the infusion stopped",60%
same,time after which tinnitus returned to base level,"tinnitus [3]; Case 2, 550 mg mexiletine over 90 min",100 min
same,tinnitus (VAS),"tinnitus [3]; Case 2, 550 mg mexiletine over 90 min, after 60 min",completely vanished
same,increase in tinnitus intensity,"tinnitus [3]; Case 2, 550 mg mexiletine over 90 min, after 214 min",about 40%
same,reduction in tinnitus intensity,"tinnitus [3]; Case 3, mexiletine",small reductions; also recorded: moderate
same,side effects,"tinnitus [3]; human, in vivo",no side effects
same,effect on GABA,GABA,stimulating effect
same,effect on tinnitus compared with placebo,tinnitus [6],not superior to placebo
same,patients showing no effect,tinnitus [7],65%
same,subjects showing an effect above 50%,tinnitus [7],14.6%
same,difference between peak and trough,[8]; after administration every 8 hours,more than 30%
same,half-life,"[8]; human, in vivo",about 8 hours
Cc1cccc(C)c1OC[C@H](C)N [(S+)-mex],side effects,allodynia,so severe that pain measurements were not possible
